Reference: BindingDB's records for doi:10.1016/j.bmcl.2006.08.033 (University of Maryland, 2006)

Target: Guanine deaminase (Oryctolagus cuniculus)
Assay: Inhibition of rabbit liver guanase

SMILES	Ki
O=C1NC(CO)C(=O)Nc2c1ncn2Cc1ccccc1 (configuration not stated) [3-benzyl-4,5,7,8-tetrahydro-6-hydroxymethyl-6H-imidazo[4,5-e][1,4]diazepine-5,8-dione]	20.1 µM
O=C1NC(CO)C(=O)Nc2nc[nH]c21 (configuration not stated) [4,5,7,8-tetrahydro-6-hydroxymethyl-6H-imidazo[4,5-e][1,4]diazepine-5,8-dione]	53.6 µM
